Here are results for 38 compounds from ChEMBL document CHEMBL4837206, “Synthesis and biological evaluation of novel isoxazole-piperazine hybrids as potential anti-cancer agents with inhibitory effect on liver cancer stem cells” (Eur J Med Chem, 2021).

Active and inactive are the calls of the source. The rule behind the calls is not given here.

Test [1] has as its system MCF7. Nature of the test: Antiproliferative activity against human MCF7 cells assessed as reduction in cell viability measured after 72 hrs by SRB assay. Format: functional, cell-based. Particulars: MCF7, 72 h. In general terms: Sulforhodamine B stains cellular protein and so reports cell mass.
For test [2], the system named is Huh-7. Nature of the test: Antiproliferative activity against human Huh-7 cells assessed as reduction in cell viability measured after 72 hrs by SRB assay. It is filed as functional, cell-based. Conditions: Huh-7, 72 h.
Test [3] has as its system Mahlavu. Nature of the test: Antiproliferative activity against human Mahlavu cells assessed as reduction in cell viability measured after 72 hrs by SRB assay. It is filed as functional, cell-based.
Test [4] in a line: Upregulation of NANOG mRNA expression in human Mahlavu cells at 10 uM incubated for 72 hrs by RT-qPCR analysis relative to control. Format: functional. A general note: Real-time PCR tracks product formation cycle by cycle.
Test [5] concerns Huh-7. Nature of the test: Inhibition of cell stemness in human Huh-7 cells assessed as reduction in size of tumor spheres at 10 uM incubated for 72 hrs followed by incubation in sphere formation medium for 7 days by microscopic analysis. Format: functional, cell-based. Conditions: time 10.0 day.
In test [6] the test system is Mahlavu. Nature of the test: Upregulation of OCT4 mRNA expression in human Mahlavu cells at 10 uM incubated for 72 hrs by RT-qPCR analysis. Format: functional, cell-based.
The test system of test [7] is Mahlavu. Nature of the test: Upregulation of OCT4 level in human Mahlavu cells at 10 uM measured after 72 hrs by flow cytometry analysis. Format: functional, cell-based. On the technique in general: Flow cytometry measures light scatter and fluorescence of single cells or particles in a stream.
For test [8], the system named is Huh-7. Nature of the test: Inhibition of cell stemness in human Huh-7 cells assessed as reduction in tumor spheres count at 10 uM incubated for 72 hrs followed by incubation in sphere formation medium for 7 days by microscopic analysis. It is filed as functional, cell-based. Conditions: time 10.0 day.
Test [9] has as its system Huh-7. Nature of the test: Inhibition of cell stemness in human Huh-7 cells assessed as reduction in size of tumor spheres at 10 uM incubated for 72 hrs followed by incubation in sphere formation medium for 14 days by microscopic analysis. It is filed as functional, cell-based. Particulars: time 17.0 day.
Test [10] relates to Huh-7. Nature of the test: Inhibition of cell stemness in human Huh-7 cells assessed as CD133+/EpCAM+ expression at 10 uM measured after 72 hrs by flow cytometry analysis (reference value: 29.92%). Also noted: scale not given: the % may be the effect or the level left. Format: functional.
Test [11] relates to Huh-7. Nature of the test: Upregulation of OCT4 mRNA expression in human Huh-7 cells at 10 uM incubated for 72 hrs by RT-qPCR analysis. Format: functional, cell-based.
Test [12] relates to Huh-7. Nature of the test: Upregulation of NANOG mRNA expression in human Huh-7 cells at 10 uM incubated for 72 hrs by RT-qPCR analysis. It is filed as functional, cell-based.

`N#Cc1ccc(COc2ccc(-c3cc(CN4CCN(Cc5ccc(C(F)(F)F)cc5)CC4)no3)cc2)cc1`: the IC50 in test [1] came out at 100 nM; in test [2], 1000 nM; in test [3], 4300 nM.

Turning to `N#Cc1cccc(COc2ccc(-c3cc(CN4CCN(Cc5ccccc5F)CC4)no3)cc2)c1`, the IC50 was found to be 1400 nM in test [1], 2400 nM in test [2] and 2300 nM in test [3].

Take `Cc1cc(C)cc(COc2ccc(-c3cc(CN4CCN(Cc5ccc(C(F)(F)F)cc5)CC4)no3)cc2)c1`: the IC50 in test [1] was found to be 1600 nM; in [2], 600 nM; in test [3], 6000 nM.

With `N#Cc1cccc(COc2ccc(-c3cc(CN4CCN(Cc5ccc(C(F)(F)F)cc5)CC4)no3)c(F)c2)c1`, the IC50 in test [1] is 1200 nM; in [2], 400 nM; in test [3], 400 nM.

Consider `Fc1ccccc1COc1ccc(-c2cc(CN3CCN(Cc4ccc(C(F)(F)F)cc4)CC3)no2)cc1`, for which the results for the IC50 in test [1], in test [2] and in test [3] were 3000 nM, 1500 nM and 3100 nM, respectively.

As for `N#Cc1cccc(COc2ccc(-c3cc(CNC4CCN(Cc5ccccc5)CC4)no3)cc2)c1`, the 50% inhibitory concentration (IC50) in [1] came out at 2500 nM; in test [2], 2500 nM; in test [3], 2100 nM.

Consider `FC(F)(F)c1ccc(CN2CCN(Cc3cc(-c4ccc(OCc5ccccc5Cl)cc4)on3)CC2)cc1`, for which the IC50 in test [1] stood at 2800 nM; in [2] it was 1000 nM; in [3] it was 3200 nM.

Consider `N#Cc1cccc(COc2ccc(-c3cc(CN4CCN(c5ccc(F)cc5)CC4)no3)cc2)c1`, for which the IC50 is 2400 nM in test [1], 1500 nM in [2] and 2200 nM in test [3].

As for `N#Cc1cccc(COc2ccc(-c3cc(CNC4CCN(Cc5ccccc5)CC4)no3)cc2F)c1`, the figures for the IC50 in [1], in [2] and in [3] were 2700 nM, 2300 nM and 2700 nM, respectively.

Consider `COc1ccc(COc2ccc(-c3cc(CN4CCN(Cc5ccc(C(F)(F)F)cc5)CC4)no3)cc2)cc1`, for which the IC50 worked out at 1300 nM in test [1], 3200 nM in test [2] and 4900 nM in test [3].

For the compound `COc1cc(COc2ccc(-c3cc(CN4CCN(Cc5ccc(C(F)(F)F)cc5)CC4)no3)cc2)cc(OC)c1`, the IC50 came to 100 nM in [1], 1500 nM in test [2] and 4300 nM in test [3].

With `N#Cc1cccc(COc2ccc(-c3cc(CN4CCN(c5ccc(C(F)(F)F)cc5)CC4)no3)cc2)c1`, the IC50 in [1] turned out to be 2000 nM; in [2], 2200 nM; in test [3] it was 2700 nM.

As to `CNC(=O)c1cc(Oc2ccc(NC(=O)Nc3ccc(Cl)c(C(F)(F)F)c3)cc2)ccn1` [SORAFENIB], the “fold change (FC)” value in test [4] worked out at 10. Besides, the inhibition result in [5] is “Active”. In addition, the result in test [6], in test [7], in test [11] and in test [12] was Active. The inhibition entry in test [8] and in [9] was “inactive” throughout. For the same compound, the Activity in test [10] stood at 36.16%.

Consider `CC(C)(C)OC(=O)N1CCN(Cc2cc(-c3ccc(OCc4cccc(C#N)c4)cc3)on2)CC1`, for which the IC50 worked out at 3800 nM in [1], 6100 nM in test [2] and 5600 nM in [3].

`Cc1ccccc1COc1ccc(-c2cc(CN3CCN(Cc4ccc(C(F)(F)F)cc4)CC3)no2)cc1`: the IC50 in test [1] stood at 3700 nM; in test [2], 1200 nM; in test [3] it was 6800 nM.

For `N#Cc1cccc(COc2ccc(-c3cc(CN4CCN(CC5CC5)CC4)no3)cc2)c1`, the IC50 in test [1] came to 3500 nM; in test [2] it was 2900 nM; in [3] it was 3200 nM.

Regarding `N#Cc1ccccc1COc1ccc(-c2cc(CN3CCN(Cc4ccc(C(F)(F)F)cc4)CC3)no2)cc1`, the figures for the IC50 in test [1], in [2] and in [3] were 4000 nM, 5000 nM and 3500 nM, respectively.

Regarding `N#Cc1cccc(COc2ccc(-c3cc(CN4CCN(c5ccc(C(F)(F)F)cn5)CC4)no3)cc2)c1`, the half-inhibitory concentration (IC50) in [1] was determined as 1400 nM; in test [2], 1700 nM; in [3], 1300 nM.

Take `N#Cc1cccc(COc2ccc(-c3cc(CN4CCN(C(=O)C5CCCO5)CC4)no3)cc2)c1` (stereo not given): the IC50 was found to be 3800 nM in test [1], 2200 nM in test [2] and 4100 nM in test [3].

`COc1cc(COc2ccc(-c3cc(CN4CCN(Cc5ccc(C(F)(F)F)cc5)CC4)no3)cc2)cc(OC)c1OC`: the IC50 in [1] was found to be 1800 nM; in test [2], 500 nM; in [3], 5800 nM.

Turning to `Cc1ccc(COc2ccc(-c3cc(CN4CCN(Cc5ccc(C(F)(F)F)cc5)CC4)no3)cc2)cc1`, the figures for the IC50 in test [1], in [2] and in [3] were 1200 nM, 1500 nM and 7500 nM, respectively.

As to `Fc1cccc(COc2ccc(-c3cc(CN4CCN(Cc5ccc(C(F)(F)F)cc5)CC4)no3)cc2)c1`, the values for the IC50 in [1], in test [2] and in test [3] were 2500 nM, 1300 nM and 2900 nM, respectively.

As to `N#Cc1cccc(COc2ccc(-c3cc(CN4CCN(C(=O)c5ccco5)CC4)no3)cc2)c1`, the IC50 in test [1] was found to be 1900 nM; in test [2] it was 2000 nM; in [3], 2200 nM.

On to `COc1ccccc1COc1ccc(-c2cc(CN3CCN(Cc4ccc(C(F)(F)F)cc4)CC3)no2)cc1`, for which the IC50 came to 300 nM in test [1], 900 nM in test [2] and 3900 nM in [3].

In the case of `N#Cc1cccc(COc2ccc(-c3cc(CN4CCN(C(=O)C5CC5)CC4)no3)cc2)c1`, the IC50 in test [1] was found to be 7600 nM; in test [2], 2800 nM; in test [3], 4400 nM.

Take `FC(F)(F)c1ccc(CN2CCN(Cc3cc(-c4ccc(OCc5ccc(Cl)cc5)cc4)on3)CC2)cc1`: the half-maximal inhibitory concentration (IC50) in [1] came to 6700 nM; in test [2], 4000 nM; in test [3] it was 3700 nM.

With `N#Cc1cccc(COc2ccc(-c3cc(CN4CCN(Cc5cccc(F)c5)CC4)no3)cc2)c1`, the IC50 in test [1] turned out to be 2400 nM; in test [2] it was 2700 nM; in [3], 2600 nM.

In the case of `COc1cccc(COc2ccc(-c3cc(CN4CCN(Cc5ccc(C(F)(F)F)cc5)CC4)no3)cc2)c1`, the IC50 in test [1] amounted to 2000 nM; in test [2], 800 nM; in [3], 1400 nM.

On to `N#Cc1cccc(COc2ccc(-c3cc(CN4CCN(C(=O)c5ccco5)CC4)no3)cc2F)c1`, for which the values for the IC50 in [1], in test [2] and in test [3] were 1500 nM, 8100 nM and 3600 nM, respectively.

With `Cc1cc(OCc2cccc(C#N)c2)ccc1-c1cc(CN2CCN(Cc3ccc(C(F)(F)F)cc3)CC2)no1`, the values for the IC50 in [1], in test [2] and in test [3] were 400 nM, 1500 nM and 500 nM, respectively.

Consider `Cc1cc(-c2cc(CN3CCN(Cc4ccc(C(F)(F)F)cc4)CC3)no2)ccc1OCc1cccc(C#N)c1`, for which the IC50 in [1] is 700 nM; in test [2] it was 600 nM; in [3], 450 nM.

Take `CC(C)(C)OC(=O)N1CCC(NCc2cc(-c3ccc(OCc4cccc(C#N)c4)cc3)on2)CC1`: the IC50 in test [1] came out at 2800 nM; in [2], 1500 nM; in [3] it was 3000 nM.

Take `N#Cc1cccc(COc2ccc(-c3cc(CN4CCN(Cc5ccc(C(F)(F)F)cc5)CC4)no3)cc2)c1`: the IC50 in test [1] is 800 nM; in [2] it was 100 nM; in [3], 10600 nM.

For `N#Cc1cccc(COc2ccc(-c3cc(CN4CCN(Cc5ccc(F)cc5)CC4)no3)cc2)c1`, the results for the half-inhibitory concentration (IC50) in test [1], in test [2] and in test [3] were 1800 nM, 1600 nM and 1500 nM, respectively.

On to `Fc1ccc(COc2ccc(-c3cc(CN4CCN(Cc5ccc(C(F)(F)F)cc5)CC4)no3)cc2)cc1`, for which the IC50 in test [1] was 7900 nM; in test [2], 2000 nM; in test [3] it was 3100 nM.

As for `Cc1cccc(COc2ccc(-c3cc(CN4CCN(Cc5ccc(C(F)(F)F)cc5)CC4)no3)cc2)c1`, the results for the IC50 in test [1], in test [2] and in test [3] were 4000 nM, 5000 nM and 2500 nM, respectively.

With `N#Cc1cccc(COc2ccc(-c3cc(CN4CCN(CC5CCCO5)CC4)no3)cc2)c1` (stereo not given), the 50% inhibitory concentration (IC50) in test [1] is 8400 nM; in test [2] it was 4200 nM; in [3] it was 4800 nM.

Turning to `FC(F)(F)c1ccc(CN2CCN(Cc3cc(-c4ccc(OCc5cccc(Cl)c5)cc4)on3)CC2)cc1`, the results for the IC50 in test [1], in [2] and in test [3] were 1400 nM, 200 nM and 4100 nM, respectively.

One may read the IC50 as the concentration needed to halve the response being measured.
